Test results taken from ChEMBL document CHEMBL1148775, “Synthesis and in vivo evaluation of fluorine-18 and iodine-123 labeled 2beta-carbo(2-fluoroethoxy)-3beta-(4'-((Z)-2-iodoethenyl)phenyl)nortropane as a candidate serotonin transporter imaging agent” (J Med Chem, 2007).

What was measured:
[1] = Biodistribution in iv dosed Sprague-Dawley rat pre frontal cortex in presence of citalopram at 6 mg/kg after 60 mins; assay type: ADME, organism-based; set-up: dose 6 mg/kg, route intravenous; conditions: prefrontal cortex, read-out: Drug uptake
[2] = Biodistribution in iv dosed Sprague-Dawley rat hypothalamus in presence of reboxetine at 6mg/kg after 60 mins; assay type: ADME, organism-based; conditions: read-out: Drug uptake
[3] = Biodistribution in iv dosed Sprague-Dawley rat hippocampus after 60 mins; assay type: ADME, organism-based; conditions: read-out: Drug uptake
[4] = Biodistribution in iv dosed Sprague-Dawley rat pons in presence of reboxetine at 6 mg/kg after 60 mins; assay type: ADME, organism-based; set-up: dose 6 mg/kg, route intravenous; conditions: read-out: Drug uptake
[5] = Biodistribution in iv dosed Sprague-Dawley rat striatum in presence of RTI-113 at 6 mg/kg after 60 mins; assay type: ADME, organism-based; set-up: dose 6 mg/kg, route intravenous; conditions: read-out: Drug uptake
[6] = Biodistribution in iv dosed Sprague-Dawley rat hippocampus in presence of RTI-113 at 6 mg/kg after 60 mins; assay type: ADME, organism-based; set-up: dose 6 mg/kg, route intravenous; conditions: read-out: Drug uptake
[7] = Biodistribution in iv dosed Sprague-Dawley rat occipital cortex in presence of RTI-113 at 6 mg/kg after 60 mins; assay type: ADME, organism-based; set-up: dose 6 mg/kg, route intravenous; conditions: read-out: Drug uptake
[8] = Biodistribution in iv dosed Sprague-Dawley rat pre frontal cortex after 60 mins; assay type: ADME, organism-based; conditions: prefrontal cortex, read-out: Drug uptake
[9] = Biodistribution in iv dosed Sprague-Dawley rat pons in presence of RTI-113 at 6 mg/kg after 60 mins; assay type: ADME, organism-based; set-up: dose 6 mg/kg, route intravenous; conditions: read-out: Drug uptake
[10] = Biodistribution in iv dosed Sprague-Dawley rat hippocampus in presence of citalopram at 6 mg/kg after 60 mins; assay type: ADME, organism-based; set-up: dose 6 mg/kg, route intravenous; conditions: read-out: Drug uptake
[11] = Biodistribution in iv dosed Sprague-Dawley rat pons in presence of citalopram at 6 mg/kg after 60 mins; assay type: ADME, organism-based; set-up: dose 6 mg/kg, route intravenous; conditions: read-out: Drug uptake
[12] = Biodistribution in iv dosed Sprague-Dawley rat hypothalamus after 60 mins; assay type: ADME, organism-based; conditions: read-out: Drug uptake
[13] = Biodistribution in iv dosed Sprague-Dawley rat occipital cortex after 60 mins; assay type: ADME, organism-based; conditions: read-out: Drug uptake
[14] = Biodistribution in iv dosed Sprague-Dawley rat cerebellum in presence of reboxetine at 6 mg/kg after 60 mins; assay type: ADME, organism-based; set-up: dose 6 mg/kg, route intravenous; conditions: read-out: Drug uptake
[15] = Biodistribution in iv dosed Sprague-Dawley rat cerebellum after 60 mins; assay type: ADME, organism-based; conditions: read-out: Drug uptake
[16] = Biodistribution in iv dosed Sprague-Dawley rat pons after 60 mins; assay type: ADME, organism-based; conditions: read-out: Drug uptake
[17] = Biodistribution in iv dosed Sprague-Dawley rat striatum in presence of reboxetine at 6 mg/kg after 60 mins; assay type: ADME, organism-based; set-up: dose 6 mg/kg, route intravenous; conditions: read-out: Drug uptake
[18] = Biodistribution in iv dosed Sprague-Dawley rat hypothalamus in presence of RTI-113 at 6 mg/kg after 60 mins; assay type: ADME, organism-based; set-up: dose 6 mg/kg, route intravenous; conditions: read-out: Drug uptake
[19] = Biodistribution in iv dosed Sprague-Dawley rat occipital cortex in presence of citalopram at 6 mg/kg after 60 mins; assay type: ADME, organism-based; set-up: dose 6 mg/kg, route intravenous; conditions: read-out: Drug uptake
[20] = Biodistribution in iv dosed Sprague-Dawley rat hypothalamus in presence of citalopram at 6 mg/kg after 60 mins; assay type: ADME, organism-based; set-up: dose 6 mg/kg, route intravenous; conditions: read-out: Drug uptake
[21] = Biodistribution in iv dosed Sprague-Dawley rat occipital cortex in presence of reboxetine at 6 mg/kg after 60 mins; assay type: ADME, organism-based; set-up: dose 6 mg/kg, route intravenous; conditions: read-out: Drug uptake
[22] = Biodistribution in iv dosed Sprague-Dawley rat striatum in after 60 mins; assay type: ADME, organism-based; conditions: read-out: Drug uptake
[23] = Biodistribution in iv dosed Sprague-Dawley rat pre frontal cortex in presence of RTI-113 at 6 mg/kg after 60 mins; assay type: ADME, organism-based; set-up: dose 6 mg/kg, route intravenous; conditions: prefrontal cortex, read-out: Drug uptake
[24] = Biodistribution in iv dosed Sprague-Dawley rat striatum in presence of citalopram at 6 mg/kg after 60 mins; assay type: ADME, organism-based; set-up: dose 6 mg/kg, route intravenous; conditions: read-out: Drug uptake
[25] = Biodistribution in iv dosed Sprague-Dawley rat hippocampus in presence of reboxetine at 6 mg/kg after 60 mins; assay type: ADME, organism-based; set-up: dose 6 mg/kg, route intravenous; conditions: read-out: Drug uptake
[26] = Biodistribution in iv dosed Sprague-Dawley rat pre frontal cortex in presence of reboxetine at 6 mg/kg after 60 mins; assay type: ADME, organism-based; set-up: dose 6 mg/kg, route intravenous; conditions: prefrontal cortex, read-out: Drug uptake
[27] = Biodistribution in iv dosed Sprague-Dawley rat cerebellum in presence of citalopram at 6 mg/kg after 60 mins; assay type: ADME, organism-based; set-up: dose 6 mg/kg, route intravenous; conditions: read-out: Drug uptake
Cerebellum = assay: Biodistribution in iv dosed Sprague-Dawley rat cerebellum after 5 mins; assay type: ADME, organism-based; conditions: in vivo
[28] = Biodistribution in iv dosed Sprague-Dawley rat cerebellum in presence of RTI-113 at 6 mg/kg after 60 mins; assay type: ADME, organism-based; set-up: dose 6 mg/kg, route intravenous; conditions: read-out: Drug uptake
[29] = Partition coefficient, log P at pH 7.4; assay type: physicochemical; conditions: octanol/water
[30] = biological target: Sodium-dependent noradrenaline transporter (Homo sapiens, UniProt P23975); assay: Binding affinity to human NET expressed in HEK293 cells; assay type: cell-based
[31] = biological target: Sodium-dependent serotonin transporter (Homo sapiens, UniProt P31645); assay: Binding affinity to human SERT expressed in HEK293 cells; assay type: cell-based
[32] = biological target: Sodium-dependent dopamine transporter (Homo sapiens, UniProt Q01959); assay: Binding affinity to human DAT expressed in HEK293 cells; assay type: cell-based
[33] = Ratio of drug level in thalamus to cerebellum in cynomolgus monkey after 235 mins; assay type: ADME, tissue-based, Macaca fascicularis; conditions: in vivo
[34] = Ratio of drug level in medulla to cerebellum in cynomolgus monkey after 235 mins; assay type: ADME, tissue-based, Macaca fascicularis; conditions: in vivo
[35] = Ratio of drug level in occipital cortex to cerebellum in cynomolgus monkey after 235 mins; assay type: ADME, tissue-based, Macaca fascicularis; conditions: in vivo
[36] = Ratio of drug level in caudate to cerebellum in cynomolgus monkey after 235 mins; assay type: ADME, tissue-based, Macaca fascicularis; conditions: in vivo
[37] = Ratio of drug level in putamen to cerebellum in cynomolgus monkey after 235 mins; assay type: ADME, tissue-based, Macaca fascicularis; conditions: in vivo
[38] = Ratio of drug level in midbrain to cerebellum in cynomolgus monkey after 235 mins; assay type: ADME, tissue-based, Macaca fascicularis; conditions: in vivo

Chain of Sodium-dependent serotonin transporter (P31645 whole entry): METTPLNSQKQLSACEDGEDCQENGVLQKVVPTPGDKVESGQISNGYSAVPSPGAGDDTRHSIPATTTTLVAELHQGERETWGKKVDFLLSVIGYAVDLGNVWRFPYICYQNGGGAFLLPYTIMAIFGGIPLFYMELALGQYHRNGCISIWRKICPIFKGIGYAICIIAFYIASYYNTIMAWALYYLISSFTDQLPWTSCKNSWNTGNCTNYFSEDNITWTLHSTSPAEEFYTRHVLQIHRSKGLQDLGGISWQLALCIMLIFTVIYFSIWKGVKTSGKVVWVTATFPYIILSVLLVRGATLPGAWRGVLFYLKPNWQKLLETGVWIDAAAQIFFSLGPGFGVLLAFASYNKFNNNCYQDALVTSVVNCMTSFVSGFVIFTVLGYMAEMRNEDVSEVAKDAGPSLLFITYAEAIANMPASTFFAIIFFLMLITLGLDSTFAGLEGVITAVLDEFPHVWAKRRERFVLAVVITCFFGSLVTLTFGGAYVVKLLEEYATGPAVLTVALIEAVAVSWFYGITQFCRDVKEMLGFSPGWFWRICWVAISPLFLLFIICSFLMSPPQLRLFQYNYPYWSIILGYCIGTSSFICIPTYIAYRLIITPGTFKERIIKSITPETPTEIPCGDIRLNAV
Chain of Sodium-dependent dopamine transporter (Q01959 whole entry): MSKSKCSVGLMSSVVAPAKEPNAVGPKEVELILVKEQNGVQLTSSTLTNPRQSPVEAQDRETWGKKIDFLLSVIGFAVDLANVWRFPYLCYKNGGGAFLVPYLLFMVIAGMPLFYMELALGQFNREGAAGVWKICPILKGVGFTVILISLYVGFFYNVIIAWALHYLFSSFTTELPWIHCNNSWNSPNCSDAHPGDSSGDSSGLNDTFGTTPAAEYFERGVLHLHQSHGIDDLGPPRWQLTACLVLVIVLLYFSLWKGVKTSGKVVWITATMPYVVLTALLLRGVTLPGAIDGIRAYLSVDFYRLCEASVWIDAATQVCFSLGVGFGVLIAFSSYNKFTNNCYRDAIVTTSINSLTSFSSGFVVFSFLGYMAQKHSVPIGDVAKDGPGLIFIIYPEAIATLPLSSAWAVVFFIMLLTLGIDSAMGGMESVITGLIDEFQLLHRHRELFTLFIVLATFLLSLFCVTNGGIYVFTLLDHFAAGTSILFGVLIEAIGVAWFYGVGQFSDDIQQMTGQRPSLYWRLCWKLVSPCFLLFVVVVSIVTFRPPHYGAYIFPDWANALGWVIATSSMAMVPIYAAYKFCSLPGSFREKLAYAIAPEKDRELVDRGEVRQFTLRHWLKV
Chain of Sodium-dependent noradrenaline transporter (P23975 whole entry): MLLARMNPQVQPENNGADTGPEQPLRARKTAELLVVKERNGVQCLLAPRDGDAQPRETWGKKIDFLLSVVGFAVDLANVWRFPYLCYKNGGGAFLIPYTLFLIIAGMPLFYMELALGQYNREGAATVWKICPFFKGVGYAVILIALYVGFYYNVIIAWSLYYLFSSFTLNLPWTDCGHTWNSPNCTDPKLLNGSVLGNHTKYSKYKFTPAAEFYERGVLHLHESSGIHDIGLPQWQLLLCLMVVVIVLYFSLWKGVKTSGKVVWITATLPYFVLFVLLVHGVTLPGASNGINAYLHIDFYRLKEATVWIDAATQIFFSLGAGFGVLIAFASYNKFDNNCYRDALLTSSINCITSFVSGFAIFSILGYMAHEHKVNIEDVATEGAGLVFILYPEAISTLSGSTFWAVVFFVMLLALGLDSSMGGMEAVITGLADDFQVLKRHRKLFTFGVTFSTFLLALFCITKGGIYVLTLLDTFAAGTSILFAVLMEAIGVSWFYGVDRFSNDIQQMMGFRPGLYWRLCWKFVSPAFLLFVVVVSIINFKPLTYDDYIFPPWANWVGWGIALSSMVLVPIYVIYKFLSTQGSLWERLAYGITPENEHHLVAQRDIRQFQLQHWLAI

O=C(OCCF)C1C2CCC(CC1c1ccc(/C=C\[123I])cc1)N2 (centres undefined)
tissue uptake at 1 h [1]: 0.17 %ID/g | tissue uptake at 1 h [2]: 0.26 %ID/g | tissue uptake at 1 h [3]: 0.24 %ID/g | tissue uptake at 1 h [4]: 0.2 %ID/g | tissue uptake at 1 h [5]: 0.26 %ID/g | tissue uptake at 1 h [6]: 0.25 %ID/g | tissue uptake at 1 h [7]: 0.24 %ID/g | tissue uptake at 1 h [8]: 0.26 %ID/g | tissue uptake at 1 h [9]: 0.22 %ID/g | tissue uptake at 1 h [10]: 0.16 %ID/g | tissue uptake at 1 h [11]: 0.14 %ID/g | tissue uptake at 1 h [12]: 0.27 %ID/g | tissue uptake at 1 h [13]: 0.24 %ID/g | tissue uptake at 1 h [14]: 0.13 %ID/g | tissue uptake at 1 h [15]: 0.12 %ID/g | tissue uptake at 1 h [16]: 0.22 %ID/g | tissue uptake at 1 h [17]: 0.26 %ID/g | tissue uptake at 1 h [18]: 0.32 %ID/g | tissue uptake at 1 h [19]: 0.16 %ID/g | tissue uptake at 1 h [20]: 0.18 %ID/g | tissue uptake at 1 h [21]: 0.23 %ID/g | tissue uptake at 1 h [22]: 0.25 %ID/g | tissue uptake at 1 h [23]: 0.28 %ID/g | tissue uptake at 1 h [24]: 0.15 %ID/g | tissue uptake at 1 h [25]: 0.23 %ID/g | tissue uptake at 1 h [26]: 0.28 %ID/g | tissue uptake at 1 h [27]: 0.11 %ID/g | Drug uptake (Cerebellum): 0.24 % ID/g | tissue uptake at 1 h [28]: 0.12 %ID/g

O=C(OCCF)C1C2CCC(CC1c1ccc(/C=C\I)cc1)N2 (centres undefined)
logD [29]: 1.8 | Ki [30]: 28 nM | Ki [31]: 0.08 nM | Ki [32]: 13 nM

O=C(OCC[18F])C1C2CCC(CC1c1ccc(/C=C\I)cc1)N2 (centres undefined)
Ratio [33]: 3.3 | Ratio [34]: 3.3 | Ratio [35]: 1.6 | Ratio [36]: 2.6 | Ratio [37]: 3.8 | Ratio [38]: 4.4
